In PubChem BioAssay (NCI):
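Abbreviation: GI50, concentration required for 50% inhibition of growth. TGI is the concentration that stops growth completely.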

Assays:
Test in all cases: NCI-60 cell line screen, 384-well format
A498 renal = test system: A498 renal
A549 NSCLC = test system: A549 NSCLC
ACHN renal = test system: ACHN renal
BT-549 breast = test system: BT-549 breast
CAKI-1 renal = test system: CAKI-1 renal
CCRF-CEM leukemia = test system: CCRF-CEM leukemia
COLO 205 colon = test system: COLO 205 colon
DU-145 prostate = test system: DU-145 prostate
EKVX NSCLC = test system: EKVX NSCLC
HCC-2998 colon = test system: HCC-2998 colon
HCT-15 colon = test system: HCT-15 colon
HL-60(TB) leukemia = test system: HL-60(TB) leukemia
HOP-62 NSCLC = test system: HOP-62 NSCLC
HOP-92 NSCLC = test system: HOP-92 NSCLC
HS 578T breast = test system: HS 578T breast
K-562 leukemia = test system: K-562 leukemia
KM12 colon = test system: KM12 colon
LOX IMVI melanoma = test system: LOX IMVI melanoma
M14 melanoma = test system: M14 melanoma
MALME-3M melanoma = test system: MALME-3M melanoma
MDA-MB-231 breast = test system: MDA-MB-231 breast
MDA-MB-435 melanoma = test system: MDA-MB-435 melanoma
MDA-MB-468 breast = test system: MDA-MB-468 breast
NCI-H226 lung = test system: NCI-H226 lung
NCI-H522 lung = test system: NCI-H522 lung
NCI/ADR-RES ovarian = test system: NCI/ADR-RES ovarian
OVCAR-3 ovarian = test system: OVCAR-3 ovarian
OVCAR-4 ovarian = test system: OVCAR-4 ovarian
OVCAR-8 ovarian = test system: OVCAR-8 ovarian
PC-3 prostate = test system: PC-3 prostate
RPMI-8226 leukemia = test system: RPMI-8226 leukemia
RXF 393 renal = test system: RXF 393 renal
SF-268 CNS = test system: SF-268 CNS
SF-295 CNS = test system: SF-295 CNS
SF-539 CNS = test system: SF-539 CNS
SK-MEL-2 melanoma = test system: SK-MEL-2 melanoma
SK-MEL-5 melanoma = test system: SK-MEL-5 melanoma
SK-OV-3 ovarian = test system: SK-OV-3 ovarian
SNB-19 CNS = test system: SNB-19 CNS
SNB-75 CNS = test system: SNB-75 CNS
SR leukemia = test system: SR leukemia
SW-620 colon = test system: SW-620 colon
T-47D breast = test system: T-47D breast
TK-10 renal = test system: TK-10 renal
UACC-257 melanoma = test system: UACC-257 melanoma
UACC-62 melanoma = test system: UACC-62 melanoma
UO-31 renal = test system: UO-31 renal

Molecule `CS(=O)(=O)c1ccc(Oc2cc(F)cc(C#N)c2)c2c1[C@H](O)C(F)(F)C2` has a GI50 (A498 renal) of over 100 µM, a TGI (A498 renal) of over 100 µM and a GI50 (A549 NSCLC) of over 100 µM. It also gave a TGI (A549 NSCLC) of over 100 µM, a GI50 (ACHN renal) of over 100 µM and a TGI (ACHN renal) of over 100 µM. The GI50 (BT-549 breast) was over 100 µM, the TGI (BT-549 breast) was over 100 µM and the GI50 (CAKI-1 renal) was over 78.9 µM. It also gave a TGI (CAKI-1 renal) of over 100 µM, a GI50 (CCRF-CEM leukemia) of over 100 µM and a TGI (CCRF-CEM leukemia) of over 100 µM. For the same molecule, the GI50 (COLO 205 colon) was over 100 µM, the TGI (COLO 205 colon) was over 100 µM and the GI50 (DU-145 prostate) was over 100 µM. The TGI (DU-145 prostate) was over 100 µM, the GI50 (EKVX NSCLC) was over 100 µM and the TGI (EKVX NSCLC) was over 100 µM. For the same molecule, the GI50 (HCC-2998 colon) was over 100 µM, the TGI (HCC-2998 colon) was over 100 µM and the GI50 (HCT-15 colon) was over 100 µM. The TGI (HCT-15 colon) was over 100 µM, the GI50 (HL-60(TB) leukemia) was over 66 µM and the TGI (HL-60(TB) leukemia) was over 100 µM. For the same molecule, the GI50 (HOP-62 NSCLC) was over 100 µM, the TGI (HOP-62 NSCLC) was over 100 µM and the GI50 (HOP-92 NSCLC) was over 100 µM. The TGI (HOP-92 NSCLC) was over 100 µM, the GI50 (HS 578T breast) was over 100 µM and the TGI (HS 578T breast) was over 100 µM. The GI50 (K-562 leukemia) was over 100 µM, the TGI (K-562 leukemia) was over 100 µM and the GI50 (KM12 colon) was over 100 µM. It also gave a TGI (KM12 colon) of over 100 µM, a GI50 (LOX IMVI melanoma) of over 100 µM and a TGI (LOX IMVI melanoma) of over 100 µM. The GI50 (M14 melanoma) was over 100 µM, the TGI (M14 melanoma) was over 100 µM and the GI50 (MALME-3M melanoma) was over 100 µM. It also gave a TGI (MALME-3M melanoma) of over 100 µM, a GI50 (MDA-MB-231 breast) of over 100 µM and a TGI (MDA-MB-231 breast) of over 100 µM. For the same molecule, the GI50 (MDA-MB-435 melanoma) was over 100 µM, the TGI (MDA-MB-435 melanoma) was over 100 µM and the GI50 (MDA-MB-468 breast) was over 100 µM. For the same molecule, the TGI (MDA-MB-468 breast) was over 100 µM, the GI50 (NCI-H226 lung) was over 100 µM and the TGI (NCI-H226 lung) was over 100 µM. The GI50 (NCI-H522 lung) was over 100 µM, the TGI (NCI-H522 lung) was over 100 µM and the GI50 (NCI/ADR-RES ovarian) was over 100 µM. It also gave a TGI (NCI/ADR-RES ovarian) of over 100 µM, a GI50 (OVCAR-3 ovarian) of over 100 µM and a TGI (OVCAR-3 ovarian) of over 100 µM. The GI50 (OVCAR-4 ovarian) was over 100 µM, the TGI (OVCAR-4 ovarian) was over 100 µM and the GI50 (OVCAR-8 ovarian) was over 100 µM. It also gave a TGI (OVCAR-8 ovarian) of over 100 µM, a GI50 (PC-3 prostate) of over 100 µM and a TGI (PC-3 prostate) of over 100 µM. For the same molecule, the GI50 (RPMI-8226 leukemia) was over 100 µM, the TGI (RPMI-8226 leukemia) was over 100 µM and the GI50 (RXF 393 renal) was over 100 µM. The TGI (RXF 393 renal) was over 100 µM, the GI50 (SF-268 CNS) was over 100 µM and the TGI (SF-268 CNS) was over 100 µM. It also gave a GI50 (SF-295 CNS) of over 100 µM, a TGI (SF-295 CNS) of over 100 µM and a GI50 (SF-539 CNS) of over 100 µM. For the same molecule, the TGI (SF-539 CNS) was over 100 µM, the GI50 (SK-MEL-2 melanoma) was over 100 µM and the TGI (SK-MEL-2 melanoma) was over 100 µM. The GI50 (SK-MEL-5 melanoma) was over 100 µM, the TGI (SK-MEL-5 melanoma) was over 100 µM and the GI50 (SK-OV-3 ovarian) was over 100 µM. It also gave a TGI (SK-OV-3 ovarian) of over 100 µM, a GI50 (SNB-19 CNS) of over 100 µM and a TGI (SNB-19 CNS) of over 100 µM. It also gave a GI50 (SNB-75 CNS) of over 100 µM, a TGI (SNB-75 CNS) of over 100 µM and a GI50 (SR leukemia) of over 73.6 µM. The TGI (SR leukemia) was over 100 µM, the GI50 (SW-620 colon) was over 100 µM and the TGI (SW-620 colon) was over 100 µM. The GI50 (T-47D breast) was over 100 µM, the TGI (T-47D breast) was over 100 µM and the GI50 (TK-10 renal) was over 100 µM. It also gave a TGI (TK-10 renal) of over 100 µM, a GI50 (UACC-257 melanoma) of over 100 µM and a TGI (UACC-257 melanoma) of over 100 µM. It also gave a GI50 (UACC-62 melanoma) of over 100 µM, a TGI (UACC-62 melanoma) of over 100 µM and a GI50 (UO-31 renal) of over 100 µM. The TGI (UO-31 renal) was over 100 µM.
